Measurements as given in patent US10155741B2, “Pyridine or pyrimidine derivatives” (Hoffmann-La Roche Inc., priority 2015, dated 2018).

target: T1, human EAAT3 (Homo sapiens, UniProt P43005); test: FLIPR Membrane Potential (FMP) assay, antagonist potency at human EAAT3; type: cell-based; conditions: HEK-293 cells stably expressing human EAAT3; L-glutamate as agonist at EC80; antagonist applied 15 min before; Kb by Cheng-Prusoff equation
T1 construct: expressed in transfected cells
T1 sequence (P43005 1-524): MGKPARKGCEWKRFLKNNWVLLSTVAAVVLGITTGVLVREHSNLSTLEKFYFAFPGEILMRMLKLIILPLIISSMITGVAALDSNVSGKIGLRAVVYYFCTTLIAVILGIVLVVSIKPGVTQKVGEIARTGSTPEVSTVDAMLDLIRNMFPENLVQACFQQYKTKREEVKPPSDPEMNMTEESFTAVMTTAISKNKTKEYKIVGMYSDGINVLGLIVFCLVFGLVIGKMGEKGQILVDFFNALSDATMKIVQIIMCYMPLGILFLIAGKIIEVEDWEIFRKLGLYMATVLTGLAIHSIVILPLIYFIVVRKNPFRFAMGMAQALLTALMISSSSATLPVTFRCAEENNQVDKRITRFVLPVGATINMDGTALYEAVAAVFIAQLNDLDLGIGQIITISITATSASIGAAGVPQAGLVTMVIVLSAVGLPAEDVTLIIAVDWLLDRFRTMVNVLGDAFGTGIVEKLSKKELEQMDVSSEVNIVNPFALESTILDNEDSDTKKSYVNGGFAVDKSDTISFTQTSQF
Procedure: The FLIPR Membrane Potential (FMP) Assay
HEK-293 cells stably expressing human EAAT3 were seeded at 55 000 cells/well in growth medium (DMEM glutamate free (Invitrogen 11960-044), 1% Pen Strep (10 ml/l GIBCO BRL No 15140-023), 10% FCS non dialysed heat inactivated, 5 mg/l puromycin) in poly-D-lysine treated 96-well black microtiter plates with clear-bottom. After 24 h, the growth medium was removed and 100 μl/well of Krebs buffer (140 mM NaCl, 4.7 mM KCl, 2.5 mM CaCl2, 1.2 mM MgCl2, 11 mM HEPES, 10 mM D-glucose, pH=7.4) added. The cells were then loaded by adding 100 μl/well FMP assay dye (FLIPR Membrane Potential assay reagent, Molecular Devices). The 96-well plates were then incubated at 37° C. for 1 h. The depolarization of the cells will cause more dye to enter in the cells, where it will bind to intracellular proteins and lipids and cause an increase in the fluorescence signal. Antagonist potency at human EAAT3 was determined by using L-glutamate as agonist at a concentration which gives 80% of the maximum response. The antagonists were applied 15 min before the application of the agonist L-glutamate. The assays were performed at room temperature and measurements done by using a Fluorometric Imaging Plate Reader (FLIPR, Molecular Devices) and filter #2. Responses were measured as peak increase in fluorescence minus basal (i.e. fluorescence without addition of L-glutamate). Kb was determined using the Cheng-Prusoff equation Kb=IC50/[1+(A/EC50)], where IC50 is the concentration of the antagonist producing 50% inhibition, A is the concentration of the agonist against which the IC50 is being determined (at EC80) and EC50 is the concentration of the agonist producing 50% […].

| Compound | Kb [nM] |
| --- | --- |
| CC(C)c1ncncc1-c1cc(C(=O)NC(C)(C)C(F)(F)F)cc(-c2ccc(Cl)cc2)n1 [Example 14, 2-(4-Chlorophenyl)-6-(4-propan-2-yl-pyrimidin-5-yl)-N-(1,1,1-trifluoro-2-methylpropan-2-yl)-pyridine-4-carboxamide] | 270 |
| CC(C)c1ncncc1-c1cc(C(=O)NC(C)(C)C)cc(-c2ccc(F)c(F)c2)n1 [Example 7, N-tert-Butyl-2-(3,4-difluorophenyl)-6-(4-propan-2-yl-pyrimidin-5-yl)-pyridine-4-carboxamide] | 110 |
| COc1ccc(-c2cc(C(=O)NC(C)(C)C)cc(-c3cncnc3C(C)C)n2)cc1 [Example 15, N-tert-Butyl-2-(4-methoxyphenyl)-6-(4-propan-2-yl-pyrimidin-5-yl)-pyridine-4-carboxamide] | 310 |
| CC(C)c1ncncc1-c1cc(C(=O)NC(C)(C)C2CC2)cc(-c2ccc(Cl)cc2)n1 [Example 11, 2-(4-Chlorophenyl)-N-(2-cyclopropyl-propan-2-yl)-6-(4-propan-2-yl-pyrimidin-5-yl)-pyridine-4-carboxamide] | 150 |
| CC(C)c1ncncc1-c1cc(C(=O)NC(C)(C)C#N)cc(-c2ccc(Cl)cc2)n1 [Example 12, 2-(4-Chlorophenyl)-N-(2-cyanopropan-2-yl)-6-(4-propan-2-yl-pyrimidin-5-yl)-pyridine-4-carboxamide] | 470 |
| CC(C)c1ncncc1-c1cc(C(=O)NC(C)(C)C)cc(-c2ccc(Cl)c(F)c2)n1 [Example 9, N-tert-Butyl-2-(4-chloro-3-fluorophenyl)-6-(4-propan-2-yl-pyrimidin-5-yl)-pyridine-4-carboxamide] | 260 |
| CC(C)c1ncncc1-c1cc(C(=O)NC(C)(C)C)cc(-c2ccc(C(F)(F)F)cc2)n1 [Example 3, N-tert-Butyl-2-(4-propan-2-yl-pyrimidin-5-yl)-6-[4-(trifluoromethyl)-phenyl]-pyridine-4-carboxamide] | 110 |
| Cc1cc(-c2cc(C(=O)NC(C)(C)C)cc(-c3cncnc3C(C)C)n2)ccc1F [Example 8, N-tert-Butyl-2-(4-fluoro-3-methylphenyl)-6-(4-propan-2-yl-pyrimidin-5-yl)-pyridine-4-carboxamide] | 260 |
| CC(C)c1ncncc1-c1cc(C(=O)NC(C)(C)C)cc(-c2ccc(C3CC3)cc2)n1 [Example 10, N-tert-Butyl-2-(4-cyclopropyl-phenyl)-6-(4-propan-2-yl-pyrimidin-5-yl)-pyridine-4-carboxamide] | 290 |
| Cc1ccncc1-c1cc(C(=O)NC(C)(C)C)cc(-c2ccc(Cl)cc2)n1 [Example 5, N-tert-Butyl-2-(4-chlorophenyl)-6-(4-methylpyridin-3-yl)-pyridine-4-carboxamide] | 220 |
| CC(C)c1ncncc1-c1cc(C(=O)NC(C)(C)C)cc(-c2ccc(F)cc2)n1 [Example 2, N-tert-Butyl-2-(4-fluorophenyl)-6-(4-propan-2-yl-pyrimidin-5-yl)-pyridine-4-carboxamide] | 120 |
| CC(C)c1ncncc1-c1cc(C(=O)NC(C)(C)C)cc(-c2ccc(Cl)cc2)n1 [Example 1, N-tert-Butyl-2-(4-chlorophenyl)-6-(4-propan-2-yl-pyrimidin-5-yl)-pyridine-4-carboxamide] | 100 |
| Cc1ccc(-c2cc(C(=O)NC(C)(C)C)cc(-c3cncnc3C(C)C)n2)cc1 [Example 6, N-tert-Butyl-2-(4-methylphenyl)-6-(4-propan-2-yl-pyrimidin-5-yl)-pyridine-4-carboxamide] | 140 |
| Cc1ccncc1-c1cc(C(=O)NC(C)(C)C)cc(-c2ccc(F)cc2)n1 [Example 4, N-tert-Butyl-2-(4-fluorophenyl)-6-(4-methylpyridin-3-yl)-pyridine-4-carboxamide] | 260 |
| CC(C)c1ncncc1-c1cc(C(=O)NC(C)(C)CO)cc(-c2ccc(Cl)cc2)n1 [Example 13, 2-(4-Chlorophenyl)-N-(1-hydroxy-2-methylpropan-2-yl)-6-(4-propan-2-yl-pyrimidin-5-yl)-pyridine-4-carboxamide] | 200 |

Now from value to molecule:

| Kb [nM] | Compound |
| --- | --- |
| 140 | CC(C)(C)NC(=O)c1cc(-c2ccc(Cl)cc2)nc(-c2cncnc2C(C)(C)C)c1 [Example 23, N-tert-Butyl-2-(4-tert-butylpyrimidin-5-yl)-6-(4-chlorophenyl)-pyridine-4-carboxamide] |
| 350 | CC(C)c1ccncc1-c1cc(C(=O)NC(C)(C)C)cc(-c2ccc(C(F)(F)F)cc2)n1 [Example 25, N-tert-Butyl-2-(4-propan-2-yl-pyridin-3-yl)-6-[4-(trifluoromethyl)-phenyl]-pyridine-4-carboxamide] |
| 310 | CC(C)c1ccncc1-c1cc(C(=O)NC(C)(C)C)cc(-c2ccc(Cl)cc2)n1 [Example 26, N-tert-Butyl-2-(4-chlorophenyl)-6-(4-propan-2-yl-pyridin-3-yl)-pyridine-4-carboxamide] |
| 120 | CCC(C)(C)NC(=O)c1cc(-c2ccc(F)cc2)nc(-c2cncnc2C(C)C)c1 [Example 18, 2-(4-Fluorophenyl)-N-(2-methylbutan-2-yl)-6-(4-propan-2-yl-pyrimidin-5-yl)-pyridine-4-carboxamide] |
| 63 | CC(C)(C)NC(=O)c1cc(-c2ccc(F)cc2)nc(-c2cncnc2C(C)(C)C)c1 [Example 22, N-tert-Butyl-2-(4-tert-butyl-pyrimidin-5-yl)-6-(4-fluorophenyl)-pyridine-4-carboxamide] |
| 560 | CC(C)(C)NC(=O)c1cc(-c2ccc(F)cc2)nc(-c2cncnc2C2CC2)c1 [Example 21, N-tert-Butyl-2-(4-cyclopropylpyrimidin-5-yl)-6-(4-fluorophenyl)-pyridine-4-carboxamide] |
| 180 | CCc1ncncc1-c1cc(C(=O)NC(C)(C)C)cc(-c2ccc(F)cc2)n1 [Example 19, N-tert-Butyl-2-(4-ethyl-pyrimidin-5-yl)-6-(4-fluorophenyl)-pyridine-4-carboxamide] |
| 170 | CC(C)c1ccncc1-c1cc(C(=O)NC(C)(C)C)cc(-c2ccc(F)cc2)n1 [Example 27, N-tert-Butyl-2-(4-fluorophenyl)-6-(4-propan-2-yl-pyridin-3-yl)-pyridine-4-carboxamide] |
| 270 | CC(C)c1ncncc1-c1cc(C(=O)NC2(C)CCS(=O)(=O)C2)cc(-c2ccc(F)cc2)n1 (racemic) [Example 17, (RS)-2-(4-Fluorophenyl)-N-(3-methyl-1,1-dioxothiolan-3-yl)-6-(4-propan-2-yl-pyrimidin-5-yl)-pyridine-4-carboxamide] |
| 250 | Cc1ccc(-c2cc(C(=O)NC(C)(C)C)cc(-c3cncnc3C(C)C)n2)cc1F [Example 16, N-tert-Butyl-2-(3-fluoro-4-methylphenyl)-6-(4-propan-2-yl-pyrimidin-5-yl)-pyridine-4-carboxamide] |
| 290 | CC(C)(C)NC(=O)c1cc(-c2ccc(C(F)(F)F)cc2)nc(-c2cncnc2C(C)(C)C)c1 [Example 24, N-tert-Butyl-2-(4-tert-butyl-pyrimidin-5-yl)-6-[4-(trifluoromethyl)-phenyl]-pyridine-4-carboxamide] |
| 480 | Cc1ncncc1-c1cc(C(=O)NC(C)(C)C)cc(-c2ccc(F)cc2)n1 [Example 20, N-tert-Butyl-2-(4-fluorophenyl)-6-(4-methylpyrimidin-5-yl)-pyridine-4-carboxamide] |

system: not given; test: not given; conditions: not given

| melting point [°C] | Compound |
| --- | --- |
| 178 | CC(C)c1ncncc1-c1cc(C(=O)NC(C)(C)C)cc(-c2ccc(F)c(F)c2)n1 [Example 7, N-tert-Butyl-2-(3,4-difluorophenyl)-6-(4-propan-2-yl-pyrimidin-5-yl)-pyridine-4-carboxamide] |
